Results: US9328099B2, “Cyanomethylpyrazole carboxamides as janus kinase inhibitors” (Merck Sharp & Dohme Corp., priority 2011, dated 2016)
Where two headings read alike, the source gives them in different places.

Columns and labels:
JAK1 = JAK1 (Homo sapiens (Human), UniProt P23458); assay: Jak Biochemical HTRF Assay, JAK1; settings: read-out: JAK1 IC50
Excerpt: (§1) Jak Biochemical HTRF Assay Protocol
(§2) Subsequent reagent additions employed an Agilent Bravo.

JAK2 = JAK2 (Homo sapiens (Human), UniProt O60674); assay: Jak Biochemical HTRF Assay, JAK2
Sequence of JAK2 (O60674 849-1124): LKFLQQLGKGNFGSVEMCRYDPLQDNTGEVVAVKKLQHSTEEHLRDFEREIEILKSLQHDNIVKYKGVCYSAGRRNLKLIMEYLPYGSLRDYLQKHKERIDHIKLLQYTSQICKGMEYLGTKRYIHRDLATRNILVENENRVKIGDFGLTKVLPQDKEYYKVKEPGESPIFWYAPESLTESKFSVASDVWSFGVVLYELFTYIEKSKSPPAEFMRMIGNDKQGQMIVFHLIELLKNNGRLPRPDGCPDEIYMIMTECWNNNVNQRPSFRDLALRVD
Excerpt: as §1, §2

[1] = HTRF biochemical assay, GST-tagged catalytic domain, top concentration tested […]

Sequence of JAK1 (P23458 875-1153): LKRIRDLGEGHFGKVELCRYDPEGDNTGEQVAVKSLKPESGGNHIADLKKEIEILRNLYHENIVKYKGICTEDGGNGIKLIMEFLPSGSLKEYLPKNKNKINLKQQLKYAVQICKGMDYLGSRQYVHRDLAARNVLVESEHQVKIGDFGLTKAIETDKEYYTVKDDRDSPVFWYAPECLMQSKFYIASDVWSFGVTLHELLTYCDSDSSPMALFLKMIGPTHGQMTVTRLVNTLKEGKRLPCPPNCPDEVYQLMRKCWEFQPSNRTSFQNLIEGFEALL

Row | SMILES | IC50 (JAK1; [1]) [nM] | IC50 (JAK2; [1]) [nM] | IC50 (JAK1) [nM] | IC50 (JAK2) [nM]
1 | N#CCC1(n2cc(C(N)=O)c(Nc3ccc(F)cc3)n2)CCN(Cc2ccon2)CC1 [Example 22-45, 1-[4-(cyanomethyl)-1-(isoxazol-3-ylmethyl)piperidin-4-yl]-3-[(4-fluorophenyl)amino]-1H-pyrazole-4-carboxamide] | 2 | 34 |  | 
2 | N#CCC1(n2cc(C(N)=O)c(Nc3ccc(F)cc3)n2)CCC(Nc2cccc(F)c2)CC1 (stereo not drawn) [Example 40-16, Cis or trans 1-{1-(cyanomethyl)-4-[(3-fluorophenyl)amino]cyclohexyl}-3-[(4-fluorophenyl)amino]-1H-pyrazole-4-carboxamide] | 0.3 | 18 |  | 
3 | CC(C)(C)OC(=O)N1CCC(CC#N)(n2cc(C(N)=O)c(Nc3ccnc(F)c3)n2)CC1 [Example 9-1, tert-Butyl 4-{4-carbamoyl-3-[(2-fluoropyridin-4-yl)amino]-1H-pyrazol-1-yl}-4-(cyanomethyl)piperidine-1-carboxylate] | 0.2 | 5 |  | 
4 | Cc1cccc(Cl)c1NC(=O)N1CC(CC#N)(n2cc(C(N)=O)c(Nc3ccccc3)n2)C1 [Example 38-24, 1-{1-[(2-chloro-6-methylphenyl)carbamoyl]-3-(cyanomethyl)azetidin-3-yl}-3-(phenylamino)-1H-pyrazole-4-carboxamide] | 5 | 179 |  | 
5 | N#CCC1(n2cc(C(N)=O)c(Nc3ccc(F)cc3)n2)CCC(Nc2ccc(F)cc2)CC1 (stereo not drawn) [Example 40-18, Cis or trans 1-{1-(cyanomethyl)-4-[(4-fluorophenyl)amino]cyclohexyl}-3-[(4-fluorophenyl)amino]-1H-pyrazole-4-carboxamide] | 235 | > 1500 |  | 
6 | N#CCC1(n2cc(C(N)=O)c(Nc3ccnc(F)c3)n2)CCN(Cc2ccnc3[nH]ccc23)CC1 [Example 22-18, 1-[4-(cyanomethyl)-1-(1H-pyrrolo[2,3-b]pyridin-4-ylmethyl)piperidin-4-yl]-3-[(2-fluoropyridin-4-yl)amino]-1H-pyrazole-4-carboxamide] | 2 | 72 |  | 
7 | N#CCC1(n2cc(C(N)=O)c(Nc3cccnc3)n2)CCN(C(=O)OCC(F)(F)F)CC1 [Example 10-7, 2,2,2-trifluoroethyl 4-(4-carbamoyl-3-(pyridin-3-ylamino)-1H-pyrazol-1-yl)-4-(cyanomethyl)piperidine-1-carboxylate] | 0.2 | 4 |  | 
8 | N#CCC1(n2cc(C(N)=O)c(Nc3ccnc(F)c3)n2)CCC(N2CC(F)C2)CC1 (stereo not drawn) [Example 40-104, Cis or trans 1-[1-(cyanomethyl)-4-(3-fluoroazetidin-1-yl)cyclohexyl]-3-[(2-fluoropyridin-4-yl)amino]-1H-pyrazole-4-carboxamide] | 0.2 | 11 |  | 
9 | N#CCC1(n2cc(C(N)=O)c(Nc3ccc(F)cc3)n2)CCN(Cc2cncc(F)c2)CC1 [Example 22-49, 1-{4-(cyanomethyl)-1-[(5-fluoropyridin-3-yl)methyl]piperidin-4-yl}-3-[(4-fluorophenyl)amino]-1H-pyrazole-4-carboxamide] | 2 | 29 |  | 
10 | Cn1cc(-c2cncc(Nc3nn(C4(CC#N)CCN(C(=O)OCC(F)(F)F)CC4)cc3C(N)=O)c2)cn1 [Example 10-6, 2,2,2-trifluoroethyl 4-(4-carbamoyl-3-(5-(1-methyl-1H-pyrazol-4-yl)pyridinl-3-ylamino)-1H-pyrazol-1-yl)-4-(cyanomethyl)piperidine-1-carboxylate] | 0.8 | 71 |  | 
11 | CC(C)(C)OC(=O)N1CCC(CC#N)(n2cc(C(N)=O)c(Nc3cccc(-c4ccccc4)c3)n2)CC1 [Example 15-3, tert-butyl 4-[3-(biphenyl-3-ylamino)-4-carbamoyl-1H-pyrazol-1-yl]-4-(cyanomethyl)piperidine-1-carboxylate] | 341 | 1050 |  | 
12 | CC(=O)N1CCN(C2CCC(CC#N)(n3cc(C(N)=O)c(Nc4ccc(F)cc4)n3)CC2)CC1 (stereo not drawn) [Example 40-76, Cis or trans 1-[4-(4-acetylpiperazin-1-yl)-1-(cyanomethyl)cyclohexyl]-3-[(4-fluorophenyl)amino]-1H-pyrazole-4-carboxamide] | 13 | 225 |  | 
13 | COC(=O)N1CCC(CC#N)(n2cc(C(N)=O)c(Nc3ccccc3)n2)CC1 [Example 27-5, methyl 4-[4-carbamoyl-3-(phenylamino)-1H-pyrazol-1-yl]-4-(cyanomethyl)piperidine-1-carboxylate] | 50 | 235 |  | 
14 | CC(C)(O)Cc1cccc(N2CCC(CC#N)(n3cc(C(N)=O)c(Nc4ccc(F)cc4)n3)CC2)n1 [Example 3-49, 1-{4-(cyanomethyl)-1-[6-(2-hydroxy-2-methylpropyl)pyridin-2-yl]piperidin-4-yl}-3-[(4-fluorophenyl)amino]-1H-pyrazole-4-carboxamide] | 5 | 147 |  | 
15 | CCS(=O)(=O)N1CC(CC#N)(n2cc(C(N)=O)c(Nc3ccccc3)n2)C1 [Example 2-12, 1-[3-(cyanomethyl)-1-(ethylsulfonyl)azetidin-3-yl]-3-(phenylamino)-1H-pyrazole-4-carboxamide] | 115 | 404 |  | 
16 | CC(C)(C)COC(=O)N1CCC(CC#N)(n2cc(C(N)=O)c(Nc3ccccc3)n2)CC1 [Example 30-29, 2,2-dimethylpropyl 4-[4-carbamoyl-3-(phenylamino)-1H-pyrazol-1-yl]-4-(cyanomethyl)piperidine-1-carboxylate] | 6 | 249 |  | 
17 | CC(=O)c1ccc(Nc2nn(C3(CC#N)CCN(C(=O)OC(C)(C)C)CC3)cc2C(N)=O)cc1 [Example 9-10, tert-butyl 4-(3-(4-acetylphenylamino)-4-carbamoyl-1H-pyrazol-1-yl)-4-(cyanomethyl)piperidine-1-carboxylate] | 0.2 | 3 |  | 
18 | N#CCC1(n2cc(C(N)=O)c(Nc3ccc(F)cc3)n2)CCC(N2CCc3ccccc32)CC1 (stereo not drawn) [Example 40-49, Cis or trans 1-[1-(cyanomethyl)-4-(2,3-dihydro-1H-indol-1-yl)cyclohexyl]-3-[(4-fluorophenyl)amino]-1H-pyrazole-4-carboxamide] | 5 | 137 |  | 
19 | N#CCC1(n2cc(C(N)=O)c(Nc3ccc(S(=O)(=O)C(F)F)cc3)n2)CCC(Nc2cccc(O)c2)CC1 (stereo not drawn) [Example 40-44, Cis or trans 1-{1-(cyanomethyl)-4-[(3-hydroxyphenyl)amino]cyclohexyl}-3-({4-[(difluoromethyl)sulfonyl]phenyl}amino)-1H-pyrazole-4-carboxamide] |  |  | 0.1 | 0.8
20 | N#CCC1(n2cc(C(N)=O)c(Nc3ccccc3)n2)CCN(Cc2c(Cl)cccc2Cl)CC1 [Example 21-14, 1-[4-(cyanomethyl)-1-(2,6-dichlorobenzyl)piperidin-4-yl]-3-(phenylamino)-1H-pyrazole-4-carboxamide] | 18 | 224 |  | 
21 | Cc1ccc(CN2CCC(CC#N)(n3cc(C(N)=O)c(Nc4ccccc4)n3)CC2)cc1C [Example 21-28, 1-[4-(cyanomethyl)-1-(3,4-dimethylbenzyl)piperidin-4-yl]-3-(phenylamino)-1H-pyrazole-4-carboxamide] | 39 | 453 |  | 
22 | N#CCC1(n2cc(C(N)=O)c(Nc3ccccc3)n2)CCN(Cc2cccc(F)c2)CC1 [Example 21-18, 1-[4-(cyanomethyl)-1-(3-fluorobenzyl)piperidin-4-yl]-3-(phenylamino)-1H-pyrazole-4-carboxamide] | 2 | 73 |  | 
